The values below come from article PMC7026418, “The kinase polypharmacology landscape of clinical PARP inhibitors” (Scientific Reports, 2020).

Assay in all cases: biochemical
Parameters in all cases: DiscoveRx KINOMEscan active site-directed competition binding; percent of control kinase bound to immobilised ligand

Assay [1] addresses T1, DMPK (Homo sapiens, UniProt Q09013).
T1 sequence (Q09013 1-629): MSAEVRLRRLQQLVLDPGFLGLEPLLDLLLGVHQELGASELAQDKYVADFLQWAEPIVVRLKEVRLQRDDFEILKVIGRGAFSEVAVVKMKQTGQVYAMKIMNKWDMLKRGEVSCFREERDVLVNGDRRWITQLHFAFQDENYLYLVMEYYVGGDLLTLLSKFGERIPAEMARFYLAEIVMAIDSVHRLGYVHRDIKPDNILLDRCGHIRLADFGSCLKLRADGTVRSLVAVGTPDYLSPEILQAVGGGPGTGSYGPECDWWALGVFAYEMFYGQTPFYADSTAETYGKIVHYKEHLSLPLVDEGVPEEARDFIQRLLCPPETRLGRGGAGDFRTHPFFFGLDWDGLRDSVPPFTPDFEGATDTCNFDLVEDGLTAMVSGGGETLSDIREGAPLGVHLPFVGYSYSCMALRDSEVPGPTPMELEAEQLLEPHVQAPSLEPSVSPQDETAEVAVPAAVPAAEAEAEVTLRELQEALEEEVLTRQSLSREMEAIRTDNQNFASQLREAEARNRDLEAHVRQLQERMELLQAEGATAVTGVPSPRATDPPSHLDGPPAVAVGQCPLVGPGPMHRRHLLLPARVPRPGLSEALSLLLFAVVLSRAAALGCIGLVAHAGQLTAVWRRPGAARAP

Assay [2] deals with WNK4 (Homo sapiens, UniProt Q96J92).
Chain of WNK4 (Q96J92 whole entry): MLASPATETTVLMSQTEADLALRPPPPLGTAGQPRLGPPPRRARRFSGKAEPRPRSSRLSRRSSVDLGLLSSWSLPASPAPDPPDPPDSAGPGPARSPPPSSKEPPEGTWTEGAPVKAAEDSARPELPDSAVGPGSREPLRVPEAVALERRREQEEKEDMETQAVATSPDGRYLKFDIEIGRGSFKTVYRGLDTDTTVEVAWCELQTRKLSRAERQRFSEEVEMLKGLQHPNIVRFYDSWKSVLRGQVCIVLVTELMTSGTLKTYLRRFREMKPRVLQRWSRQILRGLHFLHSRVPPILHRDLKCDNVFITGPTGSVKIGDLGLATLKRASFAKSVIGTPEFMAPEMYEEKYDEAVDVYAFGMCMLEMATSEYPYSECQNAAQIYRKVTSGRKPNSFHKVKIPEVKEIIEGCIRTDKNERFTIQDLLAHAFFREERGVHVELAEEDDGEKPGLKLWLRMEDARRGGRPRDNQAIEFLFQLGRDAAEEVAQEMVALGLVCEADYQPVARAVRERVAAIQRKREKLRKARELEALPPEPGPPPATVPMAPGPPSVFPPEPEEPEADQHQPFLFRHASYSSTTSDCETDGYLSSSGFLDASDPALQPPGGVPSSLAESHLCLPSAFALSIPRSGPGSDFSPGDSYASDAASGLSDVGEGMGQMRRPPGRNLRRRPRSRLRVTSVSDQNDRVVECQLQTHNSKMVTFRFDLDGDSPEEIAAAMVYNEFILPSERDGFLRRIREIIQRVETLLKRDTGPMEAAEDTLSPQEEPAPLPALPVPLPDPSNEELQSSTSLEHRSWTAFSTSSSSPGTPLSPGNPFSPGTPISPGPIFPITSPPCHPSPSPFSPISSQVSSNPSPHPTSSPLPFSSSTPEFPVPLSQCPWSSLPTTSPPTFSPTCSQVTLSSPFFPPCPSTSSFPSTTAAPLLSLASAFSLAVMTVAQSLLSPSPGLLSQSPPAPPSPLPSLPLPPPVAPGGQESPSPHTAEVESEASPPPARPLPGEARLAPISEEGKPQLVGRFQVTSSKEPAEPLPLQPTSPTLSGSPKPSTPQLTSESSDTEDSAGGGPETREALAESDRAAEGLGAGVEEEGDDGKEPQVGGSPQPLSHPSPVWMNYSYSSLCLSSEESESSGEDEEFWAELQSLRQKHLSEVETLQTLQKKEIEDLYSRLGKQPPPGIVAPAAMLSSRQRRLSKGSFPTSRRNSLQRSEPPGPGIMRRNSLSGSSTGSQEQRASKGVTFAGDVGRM
Assay [3] deals with AKT1 (Homo sapiens, UniProt P31749).
Chain of AKT1 (P31749 whole entry): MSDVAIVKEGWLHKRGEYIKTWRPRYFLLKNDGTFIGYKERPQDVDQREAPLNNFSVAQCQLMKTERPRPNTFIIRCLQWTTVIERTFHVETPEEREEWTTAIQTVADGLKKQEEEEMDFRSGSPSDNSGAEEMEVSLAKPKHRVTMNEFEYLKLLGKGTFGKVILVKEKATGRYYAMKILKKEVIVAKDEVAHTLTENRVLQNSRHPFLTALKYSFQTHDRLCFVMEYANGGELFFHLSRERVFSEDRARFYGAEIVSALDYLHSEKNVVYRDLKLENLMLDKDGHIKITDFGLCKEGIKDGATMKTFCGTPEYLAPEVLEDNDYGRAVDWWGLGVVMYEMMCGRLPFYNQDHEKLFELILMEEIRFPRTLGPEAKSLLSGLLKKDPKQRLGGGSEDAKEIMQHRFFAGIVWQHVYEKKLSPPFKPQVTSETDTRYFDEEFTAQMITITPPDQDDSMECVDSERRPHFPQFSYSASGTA
Assay [4] deals with T2, DCAMKL3 (Homo sapiens, UniProt Q9C098).
T2 construct: gene DCLK3
T2 sequence (Q9C098 1-648): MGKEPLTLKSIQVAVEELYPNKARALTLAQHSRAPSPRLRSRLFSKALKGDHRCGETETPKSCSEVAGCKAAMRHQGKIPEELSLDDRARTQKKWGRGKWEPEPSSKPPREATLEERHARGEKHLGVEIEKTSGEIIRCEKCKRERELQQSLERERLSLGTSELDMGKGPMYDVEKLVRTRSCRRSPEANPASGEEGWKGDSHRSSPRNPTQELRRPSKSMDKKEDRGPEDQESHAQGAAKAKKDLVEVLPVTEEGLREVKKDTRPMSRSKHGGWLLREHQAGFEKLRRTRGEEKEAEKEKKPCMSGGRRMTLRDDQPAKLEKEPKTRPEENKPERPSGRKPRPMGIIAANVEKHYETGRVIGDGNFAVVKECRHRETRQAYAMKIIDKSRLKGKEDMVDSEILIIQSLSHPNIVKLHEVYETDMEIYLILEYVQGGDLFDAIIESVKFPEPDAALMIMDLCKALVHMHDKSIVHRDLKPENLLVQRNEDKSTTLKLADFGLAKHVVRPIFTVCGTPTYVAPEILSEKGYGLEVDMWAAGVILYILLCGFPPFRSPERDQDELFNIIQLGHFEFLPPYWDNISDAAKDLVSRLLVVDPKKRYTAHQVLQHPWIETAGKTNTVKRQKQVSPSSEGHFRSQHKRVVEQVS

Assay [5] has as its target DAPK3 (Homo sapiens, UniProt O43293).
Assay [6] has as its target T3, ERK2 (Homo sapiens, UniProt P28482).
T3 construct: gene MAPK1

Assay [7] concerns the target T4, MST3 (Homo sapiens, UniProt Q9Y6E0).
T4 construct: gene STK24

Assay [8] deals with T5, CDC2L2 (Homo sapiens, UniProt Q9UQ88).
T5 construct: gene CDK11A
T5 sequence (Q9UQ88 1-783): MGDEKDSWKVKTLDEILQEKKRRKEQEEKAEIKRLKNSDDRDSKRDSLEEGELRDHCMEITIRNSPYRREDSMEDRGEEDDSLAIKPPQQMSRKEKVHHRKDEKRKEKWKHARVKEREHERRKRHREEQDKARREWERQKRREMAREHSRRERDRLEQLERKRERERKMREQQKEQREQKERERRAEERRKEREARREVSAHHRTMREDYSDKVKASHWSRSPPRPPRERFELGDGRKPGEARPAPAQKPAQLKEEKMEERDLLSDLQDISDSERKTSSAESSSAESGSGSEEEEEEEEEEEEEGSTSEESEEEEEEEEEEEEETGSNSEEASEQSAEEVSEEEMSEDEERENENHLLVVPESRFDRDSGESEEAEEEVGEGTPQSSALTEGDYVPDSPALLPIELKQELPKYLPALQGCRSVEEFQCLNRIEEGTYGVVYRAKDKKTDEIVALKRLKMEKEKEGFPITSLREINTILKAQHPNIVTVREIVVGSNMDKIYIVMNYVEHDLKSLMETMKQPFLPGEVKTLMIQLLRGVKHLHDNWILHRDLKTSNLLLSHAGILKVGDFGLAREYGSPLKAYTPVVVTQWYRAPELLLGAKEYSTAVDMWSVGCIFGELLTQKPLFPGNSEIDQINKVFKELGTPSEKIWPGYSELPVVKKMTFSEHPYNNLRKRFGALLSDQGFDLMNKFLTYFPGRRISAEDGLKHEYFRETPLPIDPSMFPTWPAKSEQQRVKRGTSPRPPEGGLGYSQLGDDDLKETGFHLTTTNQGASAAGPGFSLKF

The target in assay [9] is NEK4 (Homo sapiens, UniProt P51957).
Chain of NEK4 (P51957 whole entry): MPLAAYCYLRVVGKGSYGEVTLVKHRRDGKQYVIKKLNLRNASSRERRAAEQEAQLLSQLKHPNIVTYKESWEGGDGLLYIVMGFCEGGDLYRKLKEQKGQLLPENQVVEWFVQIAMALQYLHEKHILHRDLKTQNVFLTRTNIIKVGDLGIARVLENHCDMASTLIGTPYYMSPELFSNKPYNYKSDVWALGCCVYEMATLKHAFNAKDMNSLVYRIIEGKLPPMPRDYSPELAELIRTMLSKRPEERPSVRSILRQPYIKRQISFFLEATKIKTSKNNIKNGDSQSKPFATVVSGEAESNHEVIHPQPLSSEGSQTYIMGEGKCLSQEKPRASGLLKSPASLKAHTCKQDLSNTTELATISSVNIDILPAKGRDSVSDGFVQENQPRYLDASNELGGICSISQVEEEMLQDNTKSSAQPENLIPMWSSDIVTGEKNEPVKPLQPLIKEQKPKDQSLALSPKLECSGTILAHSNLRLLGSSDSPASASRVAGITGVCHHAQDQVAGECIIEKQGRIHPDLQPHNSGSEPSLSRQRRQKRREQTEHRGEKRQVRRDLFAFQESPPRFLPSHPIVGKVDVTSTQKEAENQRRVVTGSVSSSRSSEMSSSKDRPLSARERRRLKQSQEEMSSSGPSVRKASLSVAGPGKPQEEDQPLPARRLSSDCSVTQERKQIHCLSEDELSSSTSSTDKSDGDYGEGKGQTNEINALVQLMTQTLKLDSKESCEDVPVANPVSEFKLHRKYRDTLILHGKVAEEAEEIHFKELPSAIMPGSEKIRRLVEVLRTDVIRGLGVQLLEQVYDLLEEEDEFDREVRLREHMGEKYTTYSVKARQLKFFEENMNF
Setting [10] is: read-out: Niraparib (MK-4827) / %Ctrl @ 10000nM.
Where [11] appears, read: read-out: Olaparib / %Ctrl @ 10000nM.
Setting [12] is: read-out: Rucaparib / %Ctrl @ 10000nM, binding competition, % of control.
[13] abbreviates: read-out: Talazoparib (BMN 673) / %Ctrl @ 10000nM.

Read-outs that look alike come from different tables or passages of the source.

T3 sequence (P28482 whole entry): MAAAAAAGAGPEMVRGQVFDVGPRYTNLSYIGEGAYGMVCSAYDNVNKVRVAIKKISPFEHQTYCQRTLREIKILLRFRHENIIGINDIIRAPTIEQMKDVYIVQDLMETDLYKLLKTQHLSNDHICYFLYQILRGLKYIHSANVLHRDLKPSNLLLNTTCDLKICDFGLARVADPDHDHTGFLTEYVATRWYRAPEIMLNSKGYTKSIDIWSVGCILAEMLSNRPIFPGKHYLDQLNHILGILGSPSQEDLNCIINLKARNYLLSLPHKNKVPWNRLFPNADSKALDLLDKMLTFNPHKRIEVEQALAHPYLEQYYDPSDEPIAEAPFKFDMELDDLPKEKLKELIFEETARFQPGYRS
Chain of DAPK3 (O43293 whole entry): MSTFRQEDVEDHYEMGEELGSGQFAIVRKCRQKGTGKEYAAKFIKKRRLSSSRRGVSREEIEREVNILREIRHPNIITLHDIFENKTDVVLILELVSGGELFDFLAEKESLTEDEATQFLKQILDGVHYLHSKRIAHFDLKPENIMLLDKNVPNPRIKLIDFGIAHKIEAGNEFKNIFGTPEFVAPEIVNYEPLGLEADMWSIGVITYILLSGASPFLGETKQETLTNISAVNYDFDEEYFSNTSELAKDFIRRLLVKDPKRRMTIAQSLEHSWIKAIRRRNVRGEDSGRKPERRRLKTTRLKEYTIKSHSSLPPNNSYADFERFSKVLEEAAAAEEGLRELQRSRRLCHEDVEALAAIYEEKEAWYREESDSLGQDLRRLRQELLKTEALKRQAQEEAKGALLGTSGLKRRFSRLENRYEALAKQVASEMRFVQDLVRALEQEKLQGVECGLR
T4 sequence (Q9Y6E0 whole entry): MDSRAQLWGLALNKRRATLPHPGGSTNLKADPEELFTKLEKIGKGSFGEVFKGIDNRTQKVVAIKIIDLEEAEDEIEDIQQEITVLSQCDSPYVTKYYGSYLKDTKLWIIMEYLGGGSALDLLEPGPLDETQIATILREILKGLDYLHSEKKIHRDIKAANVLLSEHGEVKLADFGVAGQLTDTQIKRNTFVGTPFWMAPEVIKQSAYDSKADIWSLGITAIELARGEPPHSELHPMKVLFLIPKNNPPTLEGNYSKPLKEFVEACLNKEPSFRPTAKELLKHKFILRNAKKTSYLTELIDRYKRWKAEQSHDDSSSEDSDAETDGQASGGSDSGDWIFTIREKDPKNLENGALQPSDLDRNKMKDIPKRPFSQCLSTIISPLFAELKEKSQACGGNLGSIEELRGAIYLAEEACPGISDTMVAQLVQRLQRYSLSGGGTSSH

Turning to `NC(=O)c1cccc2cn(-c3ccc([C@@H]4CCCNC4)cc3)nc12` [Niraparib], the percent of control binding at 10 µM in assay [1] (setting [10]) was 90%; in [2] (setting [10]) it was 100%; in assay [3] (setting [10]) it was 99%; in assay [4] (setting [10]) it was 85%; in [5] (setting [10]), 69%; in assay [6] (setting [10]), 93%. Besides, the results for the percent of control binding at 10 µM in assay [7] (setting [10]), in assay [8] (setting [10]) and in assay [9] (setting [10]) were 74%, 83% and 82%, respectively.

On to `O=C(c1cc(Cc2n[nH]c(=O)c3ccccc23)ccc1F)N1CCN(C(=O)C2CC2)CC1` [Olaparib], for which the percent of control binding at 10 µM in [1] (setting [11]) turned out to be 98%; in [2] (setting [11]) it was 100%; in assay [3] (setting [11]), 100%; in assay [4] (setting [11]) it was 88%; in assay [5] (setting [11]), 93%; in assay [6] (setting [11]) it was 93%. Also, the percent of control binding at 10 µM amounted to 99% in [7] (setting [11]), 100% in [8] (setting [11]) and 80% in assay [9] (setting [11]).

`CNCc1ccc(-c2[nH]c3cc(F)cc4c3c2CCNC4=O)cc1` [Rucaparib]: the percent of control binding at 10 µM in assay [1] (setting [12]) amounted to 100%; in assay [2] (setting [12]) it was 97%; in assay [3] (setting [12]), 91%; in [4] (setting [12]), 44%; in [5] (setting [12]), 24%; in [6] (setting [12]) it was 94%. Further, the percent of control binding at 10 µM in [7] (setting [12]) amounted to 89%; in assay [8] (setting [12]), 88%; in [9] (setting [12]) it was 82%.

For the compound `Cn1ncnc1[C@H]1c2n[nH]c(=O)c3cc(F)cc(c23)N[C@@H]1c1ccc(F)cc1` [Talazoparib], the percent of control binding at 10 µM is 83% in assay [1] (setting [13]); 100% in assay [2] (setting [13]); 92% in [3] (setting [13]); 100% in assay [4] (setting [13]); 87% in assay [5] (setting [13]); 100% in assay [6] (setting [13]). Also, the figures for the percent of control binding at 10 µM in [7] (setting [13]), in assay [8] (setting [13]) and in assay [9] (setting [13]) were 99%, 100% and 100%, respectively.
